{"source": "paper PMC12196347", "about": "“Evaluating Triazole-Substituted Pyrrolopyrimidines as CSF1R Inhibitors” (Molecules, 2025)", "key": {"CSF1R": {"target": "T1, CSF1R (Homo sapiens, UniProt P07333)", "T1 sequence (P07333 539-972 limits assumed)": "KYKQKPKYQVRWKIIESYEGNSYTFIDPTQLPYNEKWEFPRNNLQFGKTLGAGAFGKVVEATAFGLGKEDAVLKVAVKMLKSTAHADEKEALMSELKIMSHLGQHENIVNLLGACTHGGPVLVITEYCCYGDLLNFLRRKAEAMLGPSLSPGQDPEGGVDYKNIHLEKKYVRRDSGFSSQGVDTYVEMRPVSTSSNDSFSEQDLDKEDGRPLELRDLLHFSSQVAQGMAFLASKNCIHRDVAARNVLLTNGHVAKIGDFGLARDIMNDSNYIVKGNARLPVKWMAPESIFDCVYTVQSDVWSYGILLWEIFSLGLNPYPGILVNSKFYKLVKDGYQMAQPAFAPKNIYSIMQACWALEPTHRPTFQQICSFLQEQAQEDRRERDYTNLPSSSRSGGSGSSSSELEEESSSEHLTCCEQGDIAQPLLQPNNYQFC", "test": "CSF1R enzymatic inhibition, TR-FRET-based LANCE Ultra assay", "assay_type": "biochemical", "details": "single 8-point titrations, ATP concentration 25 µM, read-out: Enz. IC50"}, "[1]": {"tested_on": "IL-3 dependent Ba/F3 cell line (CSF1R independent)", "test": "Control assay for cellular toxicity, Ba/F3 cells dependent on IL-3", "assay_type": "cell-based", "details": "Mus musculus, BaF3; Ba/F3 cells dependent on IL-3, control for cellular toxicity"}, "[2]": {"test": "Kinetic solubility, spectrophotometric", "assay_type": "physicochemical", "details": "aqueous buffer, kinetic from dmso stock, spectrophotometrically at pH 7.4 in HEPES buffer"}, "CAMK1D (CaMKI delta)": {"target": "T2, CAMK1D (CaMKI delta) (Homo sapiens, UniProt Q8IU85)", "T2 construct": "purchased Thermo Fisher Scientific (Invitrogen) SelectScreen (Z'-LYTE)", "T2 sequence (Q8IU85 whole entry)": "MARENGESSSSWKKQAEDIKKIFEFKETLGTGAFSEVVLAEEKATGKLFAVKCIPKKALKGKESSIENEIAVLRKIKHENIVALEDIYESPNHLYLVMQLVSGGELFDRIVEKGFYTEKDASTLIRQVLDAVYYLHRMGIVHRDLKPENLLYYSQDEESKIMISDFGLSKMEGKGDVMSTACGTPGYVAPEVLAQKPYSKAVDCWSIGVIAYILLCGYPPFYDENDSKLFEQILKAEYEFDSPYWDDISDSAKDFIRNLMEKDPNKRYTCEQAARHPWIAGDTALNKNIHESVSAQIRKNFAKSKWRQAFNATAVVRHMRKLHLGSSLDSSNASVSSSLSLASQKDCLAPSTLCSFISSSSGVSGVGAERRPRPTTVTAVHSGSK", "test": "Kinase panel profiling: CAMK1D", "assay_type": "biochemical", "details": "ATP equal to KM"}, "CLK1": {"target": "T3, CLK1 (Homo sapiens, UniProt P49759)", "T3 construct": "purchased Thermo Fisher Scientific (Invitrogen) SelectScreen (Z'-LYTE)", "T3 sequence (P49759 whole entry)": "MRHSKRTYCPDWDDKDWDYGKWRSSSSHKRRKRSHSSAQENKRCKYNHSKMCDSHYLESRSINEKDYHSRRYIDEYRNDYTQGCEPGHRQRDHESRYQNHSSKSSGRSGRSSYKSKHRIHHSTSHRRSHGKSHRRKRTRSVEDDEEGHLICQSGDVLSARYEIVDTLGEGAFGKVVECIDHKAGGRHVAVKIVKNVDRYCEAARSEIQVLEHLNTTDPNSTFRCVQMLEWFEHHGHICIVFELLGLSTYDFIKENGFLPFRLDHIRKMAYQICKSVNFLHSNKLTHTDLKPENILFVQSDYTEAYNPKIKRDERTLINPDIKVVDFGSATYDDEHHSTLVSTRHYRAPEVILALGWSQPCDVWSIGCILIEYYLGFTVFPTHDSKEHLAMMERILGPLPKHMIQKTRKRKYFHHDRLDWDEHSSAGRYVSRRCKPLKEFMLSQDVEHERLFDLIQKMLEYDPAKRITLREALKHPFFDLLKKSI", "test": "Kinase panel profiling: CLK1", "assay_type": "biochemical", "details": "ATP equal to KM"}, "DAPK1": {"target": "T4, DAPK1 (Homo sapiens, UniProt P53355)", "T4 construct": "purchased Thermo Fisher Scientific (Invitrogen) SelectScreen (Z'-LYTE)", "test": "Kinase panel profiling: DAPK1", "assay_type": "biochemical", "details": "ATP equal to KM"}, "DYRK1A": {"target": "T5, DYRK1A (Homo sapiens, UniProt Q13627)", "T5 construct": "purchased Thermo Fisher Scientific (Invitrogen) SelectScreen (Z'-LYTE)", "test": "Kinase panel profiling: DYRK1A", "assay_type": "biochemical", "details": "ATP equal to KM"}, "FGFR1": {"target": "T6, FGFR1 (Homo sapiens, UniProt P11362)", "T6 construct": "purchased Thermo Fisher Scientific (Invitrogen) SelectScreen (Z'-LYTE)", "T6 sequence (P11362 22-822)": "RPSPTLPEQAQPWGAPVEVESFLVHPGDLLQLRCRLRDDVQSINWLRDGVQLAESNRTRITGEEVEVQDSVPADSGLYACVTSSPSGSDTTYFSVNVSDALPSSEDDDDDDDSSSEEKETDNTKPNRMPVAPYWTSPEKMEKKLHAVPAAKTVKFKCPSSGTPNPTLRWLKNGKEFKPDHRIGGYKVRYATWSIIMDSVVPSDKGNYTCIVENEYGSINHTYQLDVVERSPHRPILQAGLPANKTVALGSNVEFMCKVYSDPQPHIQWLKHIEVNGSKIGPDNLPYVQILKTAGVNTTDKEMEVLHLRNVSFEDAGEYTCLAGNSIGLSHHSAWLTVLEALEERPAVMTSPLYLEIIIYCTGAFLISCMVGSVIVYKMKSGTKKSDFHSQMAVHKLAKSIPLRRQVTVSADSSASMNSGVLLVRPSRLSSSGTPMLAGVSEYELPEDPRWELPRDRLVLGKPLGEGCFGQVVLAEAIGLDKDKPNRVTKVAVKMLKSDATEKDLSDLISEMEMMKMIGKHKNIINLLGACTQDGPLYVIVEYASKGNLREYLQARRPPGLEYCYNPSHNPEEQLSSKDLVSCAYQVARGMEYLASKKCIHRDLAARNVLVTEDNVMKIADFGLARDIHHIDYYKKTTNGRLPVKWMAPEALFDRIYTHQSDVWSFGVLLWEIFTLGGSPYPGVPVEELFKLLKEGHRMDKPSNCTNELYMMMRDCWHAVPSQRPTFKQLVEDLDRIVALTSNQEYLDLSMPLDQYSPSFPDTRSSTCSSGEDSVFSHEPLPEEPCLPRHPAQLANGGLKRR", "test": "Kinase panel profiling: FGFR1", "assay_type": "biochemical", "details": "ATP equal to KM"}, "FLT1 (VEGFR1)": {"target": "T7, FLT1 (VEGFR1) (Homo sapiens, UniProt P17948)", "T7 construct": "purchased Thermo Fisher Scientific (Invitrogen) SelectScreen (Z'-LYTE)", "test": "Kinase panel profiling: FLT1", "assay_type": "biochemical", "details": "ATP equal to KM"}, "FLT3": {"target": "T8, FLT3 (Homo sapiens, UniProt P36888)", "T8 construct": "purchased Thermo Fisher Scientific (Invitrogen) SelectScreen (Z'-LYTE)", "T8 sequence (P36888 27-993)": "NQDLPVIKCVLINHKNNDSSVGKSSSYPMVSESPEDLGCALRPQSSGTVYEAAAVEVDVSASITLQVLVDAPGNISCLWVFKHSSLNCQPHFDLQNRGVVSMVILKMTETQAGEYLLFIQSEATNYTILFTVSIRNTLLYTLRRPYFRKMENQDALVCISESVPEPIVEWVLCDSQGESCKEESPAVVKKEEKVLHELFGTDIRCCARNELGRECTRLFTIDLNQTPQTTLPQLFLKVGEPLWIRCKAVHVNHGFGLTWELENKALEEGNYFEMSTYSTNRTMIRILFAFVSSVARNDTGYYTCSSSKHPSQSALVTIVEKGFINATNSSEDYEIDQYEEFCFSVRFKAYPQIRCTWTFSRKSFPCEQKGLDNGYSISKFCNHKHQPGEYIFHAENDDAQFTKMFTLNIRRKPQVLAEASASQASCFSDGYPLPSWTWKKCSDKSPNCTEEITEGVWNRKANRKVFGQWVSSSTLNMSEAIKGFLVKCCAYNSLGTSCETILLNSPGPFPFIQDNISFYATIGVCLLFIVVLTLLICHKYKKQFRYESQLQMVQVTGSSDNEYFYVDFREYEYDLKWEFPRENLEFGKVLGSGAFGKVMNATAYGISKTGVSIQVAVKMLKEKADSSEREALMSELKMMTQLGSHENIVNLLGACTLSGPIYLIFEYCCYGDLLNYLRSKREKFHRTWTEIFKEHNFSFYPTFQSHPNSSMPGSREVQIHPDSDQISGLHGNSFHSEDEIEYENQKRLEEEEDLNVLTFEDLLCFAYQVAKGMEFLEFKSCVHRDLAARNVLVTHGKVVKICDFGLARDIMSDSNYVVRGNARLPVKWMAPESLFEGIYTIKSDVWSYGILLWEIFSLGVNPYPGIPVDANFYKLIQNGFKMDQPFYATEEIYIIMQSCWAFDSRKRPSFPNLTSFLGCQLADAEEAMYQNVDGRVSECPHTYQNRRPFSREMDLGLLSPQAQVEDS", "test": "Kinase panel profiling: FLT3", "assay_type": "biochemical", "details": "ATP equal to KM"}, "JAK1": {"target": "T9, JAK1 (Homo sapiens, UniProt P23458)", "T9 construct": "purchased Thermo Fisher Scientific (Invitrogen) SelectScreen (Z'-LYTE)", "test": "Kinase panel profiling: JAK1", "assay_type": "biochemical", "details": "ATP equal to KM"}, "JAK2": {"target": "T10, JAK2 (Homo sapiens, UniProt O60674)", "T10 construct": "purchased Thermo Fisher Scientific (Invitrogen) SelectScreen (Z'-LYTE)", "test": "Kinase panel profiling: JAK2", "assay_type": "biochemical", "details": "ATP equal to KM"}, "LYN B": {"target": "T11, LYN B (Homo sapiens, UniProt P07948)", "T11 construct": "purchased Thermo Fisher Scientific (Invitrogen) SelectScreen (Z'-LYTE)", "T11 sequence (P07948 1-491 isoform P07948-2)": "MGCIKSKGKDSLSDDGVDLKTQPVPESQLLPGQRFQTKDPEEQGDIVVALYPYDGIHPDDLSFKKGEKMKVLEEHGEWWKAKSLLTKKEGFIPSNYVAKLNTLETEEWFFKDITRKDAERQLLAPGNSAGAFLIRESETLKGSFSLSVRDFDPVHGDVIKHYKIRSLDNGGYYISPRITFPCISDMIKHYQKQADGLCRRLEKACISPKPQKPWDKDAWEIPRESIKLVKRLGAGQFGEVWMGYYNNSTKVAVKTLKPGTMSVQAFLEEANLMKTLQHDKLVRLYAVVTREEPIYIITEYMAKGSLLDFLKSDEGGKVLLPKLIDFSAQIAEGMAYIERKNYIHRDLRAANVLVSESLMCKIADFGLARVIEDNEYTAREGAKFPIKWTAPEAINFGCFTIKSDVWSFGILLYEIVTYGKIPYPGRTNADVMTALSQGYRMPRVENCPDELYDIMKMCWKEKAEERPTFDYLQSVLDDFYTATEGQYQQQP", "test": "Kinase panel profiling: LYN B", "assay_type": "biochemical", "details": "ATP equal to KM"}, "MET (cMet)": {"target": "T12, MET (cMet) (Homo sapiens, UniProt P08581)", "T12 construct": "purchased Thermo Fisher Scientific (Invitrogen) SelectScreen (Z'-LYTE)", "T12 sequence (P08581 25-1390)": "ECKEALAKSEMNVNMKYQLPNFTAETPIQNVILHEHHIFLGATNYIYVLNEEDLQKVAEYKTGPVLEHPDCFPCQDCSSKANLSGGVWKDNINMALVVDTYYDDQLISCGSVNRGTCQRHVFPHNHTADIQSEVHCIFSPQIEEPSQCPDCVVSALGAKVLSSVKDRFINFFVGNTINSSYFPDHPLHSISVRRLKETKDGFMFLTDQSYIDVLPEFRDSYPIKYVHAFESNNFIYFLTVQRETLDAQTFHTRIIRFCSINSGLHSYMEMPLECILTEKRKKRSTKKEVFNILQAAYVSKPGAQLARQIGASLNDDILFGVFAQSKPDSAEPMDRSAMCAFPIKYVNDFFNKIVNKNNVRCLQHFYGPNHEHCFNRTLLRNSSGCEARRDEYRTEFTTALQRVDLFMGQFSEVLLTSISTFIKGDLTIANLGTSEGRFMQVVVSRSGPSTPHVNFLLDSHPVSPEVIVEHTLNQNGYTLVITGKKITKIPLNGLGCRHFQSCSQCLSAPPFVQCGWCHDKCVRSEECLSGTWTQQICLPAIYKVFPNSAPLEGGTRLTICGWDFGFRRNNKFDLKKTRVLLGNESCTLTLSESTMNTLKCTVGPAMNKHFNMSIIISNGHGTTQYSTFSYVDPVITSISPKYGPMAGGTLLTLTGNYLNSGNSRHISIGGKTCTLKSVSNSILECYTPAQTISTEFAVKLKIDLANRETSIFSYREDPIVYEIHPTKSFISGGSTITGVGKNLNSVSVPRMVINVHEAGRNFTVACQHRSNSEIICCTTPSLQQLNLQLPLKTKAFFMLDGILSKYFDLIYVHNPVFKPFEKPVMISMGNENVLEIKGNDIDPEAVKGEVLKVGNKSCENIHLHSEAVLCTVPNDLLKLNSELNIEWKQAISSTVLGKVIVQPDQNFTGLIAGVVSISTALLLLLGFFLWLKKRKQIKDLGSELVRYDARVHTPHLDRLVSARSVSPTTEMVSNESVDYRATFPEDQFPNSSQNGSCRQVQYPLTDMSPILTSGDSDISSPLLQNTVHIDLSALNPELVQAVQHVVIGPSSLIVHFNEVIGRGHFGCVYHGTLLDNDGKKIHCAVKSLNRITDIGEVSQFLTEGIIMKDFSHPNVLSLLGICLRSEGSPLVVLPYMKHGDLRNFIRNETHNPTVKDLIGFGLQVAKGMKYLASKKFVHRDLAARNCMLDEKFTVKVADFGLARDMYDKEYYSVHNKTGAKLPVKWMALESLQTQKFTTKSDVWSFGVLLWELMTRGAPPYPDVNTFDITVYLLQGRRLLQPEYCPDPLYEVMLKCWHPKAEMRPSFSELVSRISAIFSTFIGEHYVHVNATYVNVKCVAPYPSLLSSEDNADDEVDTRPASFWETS", "test": "Kinase panel profiling: MET", "assay_type": "biochemical", "details": "ATP equal to KM"}, "MINK1": {"target": "T13, MINK1 (Homo sapiens, UniProt Q8N4C8)", "T13 construct": "purchased Thermo Fisher Scientific (Invitrogen) SelectScreen (Z'-LYTE)", "T13 sequence (Q8N4C8 whole entry)": "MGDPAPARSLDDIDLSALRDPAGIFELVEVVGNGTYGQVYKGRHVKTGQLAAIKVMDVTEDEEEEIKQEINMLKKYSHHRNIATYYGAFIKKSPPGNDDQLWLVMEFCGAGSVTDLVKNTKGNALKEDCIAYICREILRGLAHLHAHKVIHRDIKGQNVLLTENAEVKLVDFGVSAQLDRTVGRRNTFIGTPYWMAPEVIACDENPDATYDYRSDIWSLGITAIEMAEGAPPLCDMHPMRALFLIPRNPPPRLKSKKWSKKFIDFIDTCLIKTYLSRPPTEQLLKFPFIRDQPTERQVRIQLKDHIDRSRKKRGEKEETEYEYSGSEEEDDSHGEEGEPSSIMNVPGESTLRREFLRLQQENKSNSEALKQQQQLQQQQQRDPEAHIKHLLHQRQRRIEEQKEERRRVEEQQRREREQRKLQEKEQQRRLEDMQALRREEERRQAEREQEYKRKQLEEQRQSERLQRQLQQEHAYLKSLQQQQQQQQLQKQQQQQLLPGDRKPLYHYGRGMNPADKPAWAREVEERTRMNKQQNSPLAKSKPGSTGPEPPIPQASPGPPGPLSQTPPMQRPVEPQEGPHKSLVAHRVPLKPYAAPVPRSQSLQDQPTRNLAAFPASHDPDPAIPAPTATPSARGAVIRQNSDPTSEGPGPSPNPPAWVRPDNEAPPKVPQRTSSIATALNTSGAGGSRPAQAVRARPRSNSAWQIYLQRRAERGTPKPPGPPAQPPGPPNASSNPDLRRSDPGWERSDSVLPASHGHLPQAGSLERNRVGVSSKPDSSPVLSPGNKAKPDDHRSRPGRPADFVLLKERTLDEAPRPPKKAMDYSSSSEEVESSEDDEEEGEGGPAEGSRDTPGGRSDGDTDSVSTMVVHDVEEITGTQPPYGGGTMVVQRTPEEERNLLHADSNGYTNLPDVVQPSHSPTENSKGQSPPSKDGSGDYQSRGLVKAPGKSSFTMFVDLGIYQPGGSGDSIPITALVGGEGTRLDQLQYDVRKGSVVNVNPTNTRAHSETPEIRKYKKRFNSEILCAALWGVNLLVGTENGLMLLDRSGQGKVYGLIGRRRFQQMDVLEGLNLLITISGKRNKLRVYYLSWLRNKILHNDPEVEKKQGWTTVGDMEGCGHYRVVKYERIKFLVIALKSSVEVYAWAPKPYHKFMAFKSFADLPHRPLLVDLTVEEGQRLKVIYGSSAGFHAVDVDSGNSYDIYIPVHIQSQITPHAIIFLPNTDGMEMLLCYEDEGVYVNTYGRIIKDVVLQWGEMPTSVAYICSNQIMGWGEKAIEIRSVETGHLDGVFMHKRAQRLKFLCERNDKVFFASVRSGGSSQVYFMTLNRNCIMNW", "test": "Kinase panel profiling: MINK1", "assay_type": "biochemical", "details": "ATP equal to KM"}, "[3]": {"details": "1000 nM test concentration, read-out: Average inhibition (%)"}, "[4]": {"details": "1000 nM, first data point, read-out: Inhibition (%)"}, "[5]": {"details": "1000 nM, second data point, read-out: Inhibition (%)"}}, "note": "Where two headings read alike, the source gives them in different places."}
{"compound": "Cc1cccc(CN(C)c2ncnc3[nH]c(-c4cn(Cc5cccnc5)nn4)cc23)c1", "note": "[Compound 27a, N-Methyl-N-(3-methylbenzyl)-6-(1-(pyridin-3-ylmethyl)-1H-1,2,3-triazol-4-yl)-7H-pyrrolo[2,3-d]pyrimidin-4-amine]", "values": [{"measurement": "IC50", "setting": "CSF1R", "value": "< 0.001", "unit": "µM"}, {"measurement": "IC50", "setting": "[1]", "value": "> 10", "unit": "µM"}, {"measurement": "solubility kinetic", "setting": "[2]", "value": 3.1, "unit": "µM"}, {"measurement": "inhibition at 1 µM", "setting": "CAMK1D (CaMKI delta); [3]", "value": 5, "unit": "%"}, {"measurement": "inhibition at 1 µM", "setting": "CAMK1D (CaMKI delta); [4]", "value": 2, "unit": "%"}, {"measurement": "inhibition at 1 µM", "setting": "CAMK1D (CaMKI delta); [5]", "value": 9, "unit": "%"}, {"measurement": "inhibition at 1 µM", "setting": "CLK1; [3]", "value": 8, "unit": "%"}, {"measurement": "inhibition at 1 µM", "setting": "CLK1; [4]", "value": 8, "unit": "%"}, {"measurement": "inhibition at 1 µM", "setting": "DAPK1; [3]", "value": 4, "unit": "%"}, {"measurement": "inhibition at 1 µM", "setting": "DAPK1; [4]", "value": 13, "unit": "%"}, {"measurement": "inhibition at 1 µM", "setting": "DAPK1; [5]", "value": -5, "unit": "%"}, {"measurement": "inhibition at 1 µM", "setting": "DYRK1A; [3]", "value": 5, "unit": "%"}, {"measurement": "inhibition at 1 µM", "setting": "DYRK1A; [4]", "value": 5, "unit": "%"}, {"measurement": "inhibition at 1 µM", "setting": "DYRK1A; [5]", "value": 4, "unit": "%"}, {"measurement": "inhibition at 1 µM", "setting": "FGFR1; [3]", "value": 9, "unit": "%"}, {"measurement": "inhibition at 1 µM", "setting": "FGFR1; [4]", "value": 9, "unit": "%"}, {"measurement": "inhibition at 1 µM", "setting": "FGFR1; [5]", "value": 8, "unit": "%"}, {"measurement": "inhibition at 1 µM", "setting": "FLT1 (VEGFR1); [3]", "value": 31, "unit": "%"}, {"measurement": "inhibition at 1 µM", "setting": "FLT1 (VEGFR1); [4]", "value": 32, "unit": "%"}, {"measurement": "inhibition at 1 µM", "setting": "FLT1 (VEGFR1); [5]", "value": 30, "unit": "%"}, {"measurement": "inhibition at 1 µM", "setting": "FLT3; [3]", "value": 44, "unit": "%"}, {"measurement": "inhibition at 1 µM", "setting": "FLT3; [4]", "value": 42, "unit": "%"}, {"measurement": "inhibition at 1 µM", "setting": "FLT3; [5]", "value": 45, "unit": "%"}, {"measurement": "inhibition at 1 µM", "setting": "JAK1; [3]", "value": 9, "unit": "%"}, {"measurement": "inhibition at 1 µM", "setting": "JAK1; [4]", "value": 22, "unit": "%"}, {"measurement": "inhibition at 1 µM", "setting": "JAK1; [5]", "value": -3, "unit": "%"}, {"measurement": "inhibition at 1 µM", "setting": "JAK2; [3]", "value": 26, "unit": "%"}, {"measurement": "inhibition at 1 µM", "setting": "JAK2; [4]", "value": 25, "unit": "%"}, {"measurement": "inhibition at 1 µM", "setting": "JAK2; [5]", "value": 26, "unit": "%"}, {"measurement": "inhibition at 1 µM", "setting": "LYN B; [3]", "value": 76, "unit": "%"}, {"measurement": "inhibition at 1 µM", "setting": "LYN B; [4]", "value": 74, "unit": "%"}, {"measurement": "inhibition at 1 µM", "setting": "LYN B; [5]", "value": 79, "unit": "%"}, {"measurement": "inhibition at 1 µM", "setting": "MET (cMet); [3]", "value": 13, "unit": "%"}, {"measurement": "inhibition at 1 µM", "setting": "MET (cMet); [4]", "value": 10, "unit": "%"}, {"measurement": "inhibition at 1 µM", "setting": "MET (cMet); [5]", "value": 16, "unit": "%"}, {"measurement": "inhibition at 1 µM", "setting": "MINK1; [3]", "value": 76, "unit": "%"}, {"measurement": "inhibition at 1 µM", "setting": "MINK1; [4]", "value": 75, "unit": "%"}, {"measurement": "inhibition at 1 µM", "setting": "MINK1; [5]", "value": 77, "unit": "%"}]}
